As usually defined, the inhibition is the change of the read-out against control, counted positive when it falls.

In assay [1] the target is CDK1/Cyclin A (Homo sapiens) (UniProt P06493+P20248). The experiment in a line: Inhibition of human CDK1/cyclin A at 18.6 nM by HotSpot assay relative to control. The assay is classed as protein-complex assay.
Assay [2] deals with Cyclin-dependent kinase 1/cyclin B1 (Homo sapiens) (UniProt P06493+P14635). The experiment in a line: Inhibition of human CDK1/cyclin B at 18.6 nM by HotSpot assay relative to control. The assay is classed as protein-complex assay.
The target in assay [3] is T1, Inhibitor of nuclear factor kappa-B kinase subunit epsilon (Homo sapiens) (UniProt Q14164).
T1 sequence (whole entry): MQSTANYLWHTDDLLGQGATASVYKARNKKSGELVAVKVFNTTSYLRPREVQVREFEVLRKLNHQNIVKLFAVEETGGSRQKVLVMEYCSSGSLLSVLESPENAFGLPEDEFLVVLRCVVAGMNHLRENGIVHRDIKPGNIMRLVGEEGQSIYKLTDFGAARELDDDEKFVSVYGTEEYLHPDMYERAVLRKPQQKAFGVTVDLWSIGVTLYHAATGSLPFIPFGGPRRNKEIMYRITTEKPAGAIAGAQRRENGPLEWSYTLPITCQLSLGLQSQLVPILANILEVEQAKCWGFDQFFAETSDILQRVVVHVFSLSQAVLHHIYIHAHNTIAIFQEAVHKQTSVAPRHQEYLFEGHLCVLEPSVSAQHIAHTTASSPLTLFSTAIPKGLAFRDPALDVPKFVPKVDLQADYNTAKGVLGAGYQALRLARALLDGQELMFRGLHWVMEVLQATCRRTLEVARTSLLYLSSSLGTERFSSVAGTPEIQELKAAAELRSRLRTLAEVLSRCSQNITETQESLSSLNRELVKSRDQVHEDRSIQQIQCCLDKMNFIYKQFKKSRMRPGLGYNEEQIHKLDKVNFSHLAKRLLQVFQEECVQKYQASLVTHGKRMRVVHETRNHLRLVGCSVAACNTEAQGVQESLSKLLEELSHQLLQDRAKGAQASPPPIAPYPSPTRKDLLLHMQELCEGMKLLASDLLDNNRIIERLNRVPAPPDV
The experiment in a line: Inhibition of human IKKe at 18.6 nM by HotSpot assay relative to control.

For assay [4], the target named is Tyrosine-protein kinase JAK1 (Homo sapiens) (UniProt P23458). Description: Inhibition of human JAK1 at 18.6 nM by HotSpot assay relative to control.
Sequence of Tyrosine-protein kinase JAK1 (Homo sapiens) (P23458 whole entry): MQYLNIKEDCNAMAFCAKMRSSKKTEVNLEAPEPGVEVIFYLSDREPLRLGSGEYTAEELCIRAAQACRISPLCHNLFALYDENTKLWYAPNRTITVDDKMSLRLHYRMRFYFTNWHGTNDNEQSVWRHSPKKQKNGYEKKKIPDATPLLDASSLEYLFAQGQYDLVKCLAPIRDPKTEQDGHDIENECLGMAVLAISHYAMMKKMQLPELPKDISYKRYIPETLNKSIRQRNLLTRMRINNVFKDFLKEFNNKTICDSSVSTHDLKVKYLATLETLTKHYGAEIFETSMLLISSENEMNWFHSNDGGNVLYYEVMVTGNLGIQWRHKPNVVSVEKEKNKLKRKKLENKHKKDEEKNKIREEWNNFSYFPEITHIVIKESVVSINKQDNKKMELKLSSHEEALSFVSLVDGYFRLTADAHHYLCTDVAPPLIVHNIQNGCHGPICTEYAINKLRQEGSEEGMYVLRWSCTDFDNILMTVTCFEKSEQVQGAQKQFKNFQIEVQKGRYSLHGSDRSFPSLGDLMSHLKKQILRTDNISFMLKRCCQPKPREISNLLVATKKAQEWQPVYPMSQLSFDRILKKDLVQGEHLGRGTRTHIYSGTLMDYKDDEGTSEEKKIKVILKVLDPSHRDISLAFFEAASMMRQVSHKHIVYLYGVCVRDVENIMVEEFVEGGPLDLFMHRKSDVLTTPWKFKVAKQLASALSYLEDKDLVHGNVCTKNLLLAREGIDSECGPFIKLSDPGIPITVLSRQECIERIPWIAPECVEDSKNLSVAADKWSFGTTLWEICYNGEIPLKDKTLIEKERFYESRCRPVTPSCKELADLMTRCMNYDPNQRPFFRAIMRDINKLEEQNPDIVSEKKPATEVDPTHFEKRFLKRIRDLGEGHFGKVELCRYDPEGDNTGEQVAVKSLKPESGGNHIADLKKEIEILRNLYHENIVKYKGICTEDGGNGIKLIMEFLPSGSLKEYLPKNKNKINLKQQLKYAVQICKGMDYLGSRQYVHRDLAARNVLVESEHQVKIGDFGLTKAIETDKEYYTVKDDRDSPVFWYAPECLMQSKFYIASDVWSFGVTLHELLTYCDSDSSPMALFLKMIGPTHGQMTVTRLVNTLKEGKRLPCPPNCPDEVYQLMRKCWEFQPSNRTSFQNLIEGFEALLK
Assay [5] addresses Serine/threonine-protein kinase Nek4 (Homo sapiens) (UniProt P51957). Description: Inhibition of human NEK4 at 18.6 nM by HotSpot assay relative to control.
Assay [6] deals with Receptor-interacting serine/threonine-protein kinase 2 (Homo sapiens) (UniProt O43353). The experiment in a line: Inhibition of human RIPK2 at 18.6 nM by HotSpot assay relative to control.
Sequence of Receptor-interacting serine/threonine-protein kinase 2 (Homo sapiens) (O43353 whole entry): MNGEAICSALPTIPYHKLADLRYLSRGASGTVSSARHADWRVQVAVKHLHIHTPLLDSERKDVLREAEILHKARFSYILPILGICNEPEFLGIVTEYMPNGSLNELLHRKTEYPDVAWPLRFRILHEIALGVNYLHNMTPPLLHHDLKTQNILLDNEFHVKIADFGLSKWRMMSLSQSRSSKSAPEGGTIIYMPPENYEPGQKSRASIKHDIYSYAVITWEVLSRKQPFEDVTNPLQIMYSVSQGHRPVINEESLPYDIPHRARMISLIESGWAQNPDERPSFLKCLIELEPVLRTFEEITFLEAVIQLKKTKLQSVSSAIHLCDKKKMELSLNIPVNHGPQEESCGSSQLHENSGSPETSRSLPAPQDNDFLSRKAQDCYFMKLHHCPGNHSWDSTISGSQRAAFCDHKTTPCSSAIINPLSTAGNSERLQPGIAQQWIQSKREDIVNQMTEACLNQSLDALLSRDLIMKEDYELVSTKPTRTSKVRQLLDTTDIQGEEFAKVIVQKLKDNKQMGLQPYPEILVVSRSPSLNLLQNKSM
Assay [7] concerns the target T2, Serine/threonine-protein kinase Sgk1 (Homo sapiens) (UniProt O00141).
T2 sequence (whole entry): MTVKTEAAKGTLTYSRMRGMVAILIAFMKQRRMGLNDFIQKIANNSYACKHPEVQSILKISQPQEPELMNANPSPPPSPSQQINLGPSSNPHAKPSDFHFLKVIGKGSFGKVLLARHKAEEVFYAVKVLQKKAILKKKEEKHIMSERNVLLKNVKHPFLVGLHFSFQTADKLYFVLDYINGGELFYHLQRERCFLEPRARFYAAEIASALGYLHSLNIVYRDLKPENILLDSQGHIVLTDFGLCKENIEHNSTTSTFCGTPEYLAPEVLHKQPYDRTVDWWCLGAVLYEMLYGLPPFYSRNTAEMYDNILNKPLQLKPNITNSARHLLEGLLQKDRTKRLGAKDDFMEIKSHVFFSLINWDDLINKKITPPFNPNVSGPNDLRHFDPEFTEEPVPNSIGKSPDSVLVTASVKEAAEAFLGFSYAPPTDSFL
The experiment in a line: Inhibition of human SGK1 at 18.6 nM by HotSpot assay relative to control.

The target in assay [8] is Calcium/calmodulin-dependent protein kinase type II subunit alpha (Homo sapiens) (UniProt Q9UQM7). Description: Inhibition of human CAMK2a at 1.82 nM by HotSpot assay relative to control.
Sequence of Calcium/calmodulin-dependent protein kinase type II subunit alpha (Homo sapiens) (Q9UQM7 whole entry): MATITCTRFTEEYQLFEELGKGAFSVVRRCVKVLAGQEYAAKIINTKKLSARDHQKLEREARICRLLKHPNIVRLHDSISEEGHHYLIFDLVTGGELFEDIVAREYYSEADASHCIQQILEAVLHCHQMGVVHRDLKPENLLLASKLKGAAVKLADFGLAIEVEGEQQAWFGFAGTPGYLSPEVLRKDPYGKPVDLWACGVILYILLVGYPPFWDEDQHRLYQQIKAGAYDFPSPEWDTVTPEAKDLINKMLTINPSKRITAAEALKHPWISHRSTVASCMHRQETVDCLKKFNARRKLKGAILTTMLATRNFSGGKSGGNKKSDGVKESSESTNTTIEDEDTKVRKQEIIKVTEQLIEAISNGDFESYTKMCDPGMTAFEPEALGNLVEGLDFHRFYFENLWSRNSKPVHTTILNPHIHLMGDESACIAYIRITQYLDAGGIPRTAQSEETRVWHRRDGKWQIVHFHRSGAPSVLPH
For assay [9], the target named is Tyrosine-protein kinase Fer (Homo sapiens) (UniProt P16591). Description: Inhibition of human FER at 1.82 nM by HotSpot assay relative to control.
Sequence of Tyrosine-protein kinase Fer (Homo sapiens) (P16591 whole entry, looked up): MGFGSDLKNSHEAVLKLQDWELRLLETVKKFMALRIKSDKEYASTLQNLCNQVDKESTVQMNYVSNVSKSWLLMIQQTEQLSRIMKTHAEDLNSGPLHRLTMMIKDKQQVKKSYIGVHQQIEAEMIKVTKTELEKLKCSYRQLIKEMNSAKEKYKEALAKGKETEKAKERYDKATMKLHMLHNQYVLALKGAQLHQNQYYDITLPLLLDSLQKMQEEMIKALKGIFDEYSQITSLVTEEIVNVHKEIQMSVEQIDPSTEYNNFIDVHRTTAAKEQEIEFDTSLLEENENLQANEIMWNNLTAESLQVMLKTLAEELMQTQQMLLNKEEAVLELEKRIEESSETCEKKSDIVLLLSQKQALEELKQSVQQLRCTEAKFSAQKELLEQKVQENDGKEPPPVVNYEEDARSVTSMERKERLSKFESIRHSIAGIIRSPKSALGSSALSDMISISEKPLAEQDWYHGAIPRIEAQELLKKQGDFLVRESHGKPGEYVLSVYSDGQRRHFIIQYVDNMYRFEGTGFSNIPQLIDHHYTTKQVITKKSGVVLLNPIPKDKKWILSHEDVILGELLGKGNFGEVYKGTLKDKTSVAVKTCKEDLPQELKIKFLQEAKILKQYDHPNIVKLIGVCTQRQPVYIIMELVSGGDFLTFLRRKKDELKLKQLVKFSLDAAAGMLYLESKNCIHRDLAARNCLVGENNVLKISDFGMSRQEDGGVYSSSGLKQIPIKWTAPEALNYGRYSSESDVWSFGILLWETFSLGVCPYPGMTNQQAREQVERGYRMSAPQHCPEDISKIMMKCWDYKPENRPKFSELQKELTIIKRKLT
For assay [10], the target named is MAP kinase-activated protein kinase 3 (Homo sapiens) (UniProt Q16644). Description: Inhibition of human MAPKAPK3 at 1.82 nM by HotSpot assay relative to control.
Sequence of MAP kinase-activated protein kinase 3 (Homo sapiens) (Q16644 whole entry, looked up): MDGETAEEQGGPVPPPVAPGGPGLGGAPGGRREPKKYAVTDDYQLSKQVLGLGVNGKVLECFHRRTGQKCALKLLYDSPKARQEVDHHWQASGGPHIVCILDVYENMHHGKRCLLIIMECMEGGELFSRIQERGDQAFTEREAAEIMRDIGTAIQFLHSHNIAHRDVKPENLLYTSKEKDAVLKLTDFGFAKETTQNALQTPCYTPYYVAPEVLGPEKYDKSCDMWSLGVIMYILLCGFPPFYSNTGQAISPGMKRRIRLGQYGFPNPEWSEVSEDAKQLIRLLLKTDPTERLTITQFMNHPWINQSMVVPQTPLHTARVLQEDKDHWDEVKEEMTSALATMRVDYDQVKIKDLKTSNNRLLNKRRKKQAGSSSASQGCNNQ
Assay [11] has as its target Serine/threonine-protein kinase Nek4 (Homo sapiens) (UniProt P51957). The experiment in a line: Inhibition of human NEK4 at 1.82 nM by HotSpot assay relative to control.
In assay [12] the target is T3, Phosphorylase b kinase gamma catalytic chain, liver/testis isoform (Homo sapiens) (UniProt P15735).
T3 sequence (whole entry): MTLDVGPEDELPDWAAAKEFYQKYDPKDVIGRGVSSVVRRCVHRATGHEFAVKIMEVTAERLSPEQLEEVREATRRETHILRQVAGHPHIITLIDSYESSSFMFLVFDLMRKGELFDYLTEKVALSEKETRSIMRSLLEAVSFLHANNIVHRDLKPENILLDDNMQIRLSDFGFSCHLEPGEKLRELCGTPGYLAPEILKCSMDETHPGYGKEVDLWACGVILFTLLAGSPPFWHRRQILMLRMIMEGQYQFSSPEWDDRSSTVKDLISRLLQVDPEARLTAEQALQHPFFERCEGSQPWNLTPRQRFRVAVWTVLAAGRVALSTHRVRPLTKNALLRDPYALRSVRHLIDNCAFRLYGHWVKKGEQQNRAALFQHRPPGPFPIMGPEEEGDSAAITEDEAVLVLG
Description: Inhibition of human PHKg2 at 1.82 nM by HotSpot assay relative to control.

For assay [13], the target named is Serine/threonine-protein kinase pim-2 (Homo sapiens) (UniProt Q9P1W9). Description: Inhibition of human PIM2 at 1.82 nM by HotSpot assay relative to control.
Sequence of Serine/threonine-protein kinase pim-2 (Homo sapiens) (Q9P1W9 whole entry, looked up): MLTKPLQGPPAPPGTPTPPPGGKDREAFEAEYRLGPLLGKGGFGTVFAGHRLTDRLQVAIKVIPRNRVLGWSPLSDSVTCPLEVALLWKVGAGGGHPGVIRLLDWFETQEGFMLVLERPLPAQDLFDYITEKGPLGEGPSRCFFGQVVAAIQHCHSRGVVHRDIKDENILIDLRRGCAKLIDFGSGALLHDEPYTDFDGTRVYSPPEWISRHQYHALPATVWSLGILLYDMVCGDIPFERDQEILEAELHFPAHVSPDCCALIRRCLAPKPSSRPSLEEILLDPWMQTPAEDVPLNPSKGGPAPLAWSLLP
Assay [14] has as its target T4, Serine/threonine-protein kinase Sgk3 (Homo sapiens) (UniProt Q96BR1).
T4 sequence (whole entry): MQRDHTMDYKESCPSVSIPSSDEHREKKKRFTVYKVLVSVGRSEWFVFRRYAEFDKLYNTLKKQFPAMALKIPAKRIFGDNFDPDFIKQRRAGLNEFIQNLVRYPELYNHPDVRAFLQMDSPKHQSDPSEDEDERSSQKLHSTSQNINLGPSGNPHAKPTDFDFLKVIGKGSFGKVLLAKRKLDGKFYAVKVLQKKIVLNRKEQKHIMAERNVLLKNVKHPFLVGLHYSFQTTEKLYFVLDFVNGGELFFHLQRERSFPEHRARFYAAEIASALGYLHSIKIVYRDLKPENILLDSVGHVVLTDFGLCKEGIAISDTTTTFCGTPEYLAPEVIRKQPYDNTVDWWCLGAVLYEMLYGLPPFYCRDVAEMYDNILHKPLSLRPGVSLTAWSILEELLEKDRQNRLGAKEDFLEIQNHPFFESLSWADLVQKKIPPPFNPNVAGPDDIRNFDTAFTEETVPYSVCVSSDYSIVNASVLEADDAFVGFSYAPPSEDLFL
The experiment in a line: Inhibition of human SGKL at 1.82 nM by HotSpot assay relative to control.

Sequence of Serine/threonine-protein kinase Nek4 (Homo sapiens) (P51957 whole entry, looked up, canonical isoform): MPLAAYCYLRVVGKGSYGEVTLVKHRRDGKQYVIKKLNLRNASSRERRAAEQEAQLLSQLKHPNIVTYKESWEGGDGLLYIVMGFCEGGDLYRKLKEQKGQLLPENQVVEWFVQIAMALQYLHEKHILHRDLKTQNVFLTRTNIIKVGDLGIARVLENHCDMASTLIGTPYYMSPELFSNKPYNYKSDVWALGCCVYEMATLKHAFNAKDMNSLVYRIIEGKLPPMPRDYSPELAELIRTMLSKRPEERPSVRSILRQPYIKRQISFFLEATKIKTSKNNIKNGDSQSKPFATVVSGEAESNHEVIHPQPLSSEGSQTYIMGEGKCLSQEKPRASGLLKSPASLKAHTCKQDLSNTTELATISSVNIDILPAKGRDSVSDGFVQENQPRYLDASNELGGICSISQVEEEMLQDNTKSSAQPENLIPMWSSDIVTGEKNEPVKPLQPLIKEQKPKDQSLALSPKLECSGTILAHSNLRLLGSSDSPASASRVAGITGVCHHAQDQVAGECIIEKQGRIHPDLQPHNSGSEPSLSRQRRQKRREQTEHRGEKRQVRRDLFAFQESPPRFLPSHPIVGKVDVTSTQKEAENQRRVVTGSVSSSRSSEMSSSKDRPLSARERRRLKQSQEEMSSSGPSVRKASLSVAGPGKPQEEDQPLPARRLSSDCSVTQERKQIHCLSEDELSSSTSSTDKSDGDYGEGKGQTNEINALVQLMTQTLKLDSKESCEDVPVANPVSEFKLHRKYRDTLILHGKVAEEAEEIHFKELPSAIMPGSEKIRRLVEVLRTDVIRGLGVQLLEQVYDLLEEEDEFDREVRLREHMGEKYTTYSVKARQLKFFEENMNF

In the case of `C[C@]1(O)C[C@@H](c2nc(-c3ccc4ccc(-c5ccccc5)nc4c3)c3c(N)nccn32)C1`, the inhibition in assay [1] was 1.16%; in [2], 1.65%; in assay [3] it was 3.19%; in [4], -9.75%; in assay [5] it was -3.26%; in assay [6], 12.1%. Moreover, in [7], the inhibition was determined as 3.48%.
Turning to `C[C@@]1(C(=O)Nc2ccc(F)nc2)CCCN1c1nc(Nc2cc(C3CC3)n[nH]2)c2cccn2n1`, the inhibition in assay [8] was -2.76%; in assay [9], -2.54%; in assay [10], -1.61%; in [11], -3.35%; in assay [12], -4.64%; in [13], -3.22%. The inhibition in assay [14] is -2.25%.

Source of the values: ChEMBL document CHEMBL5653615 (J Biol Chem, 2013).
